Tests used:
E-Cadherin = E-Cadherin expression in IPF patient fibroblasts (Western blot on whole cell lysates); assay type: cell-based, human; conditions: RPMI 1640+10% FBS, 2 days
Procedure: (§1) Western blots for S100A4 (also know as FSP-1 or fibroblast specific protein-1) and E-Cadherin were performed on whole cell lysates.

[1] = biological target: β-catenin/CBP interaction (Homo sapiens, UniProt Q92793); conditions: cited from earlier work
S100A4 [2] = assay: RT-PCR for S100A4 in bleomycin treated mice; assay type: in vivo; conditions: ICG-001 5 mgs/Kg/day s.c.
S100A4 [3] = assay: S100A4 expression in IPF patient fibroblasts (Western blot on whole cell lysates); assay type: cell-based, human
Procedure: as §1

collagen 1A2 = assay: RT-PCR for collagen 1A2 in bleomycin treated mice; assay type: in vivo; conditions: ICG-001 5 mgs/Kg/day s.c.
[4] = system: C57/B16 mice treated with intratracheal bleomeycin; assay: Bleomycin induced murine pulmonary fibrosis model (lung sections, trichrome stain, body weight, survival); assay type: in vivo
Procedure: Murine models of bleomycin induced fibrosis have been developed in order to study fibrotic disease progression.
There is an absence of airway epithelium in lower left compared to upper left (see arrow heads) and extensive collagen deposition (lower left). On the sixth day, either saline (upper right) or ICG-001 (5 mgs/Kg/day) was administered for 10 days after which the mice were sacrificed and sectioned. Of interest is the upper right (saline treatment) showing lack of normal airway epithelialization, extensive collagen deposition and intra-airway hypercellularity (fibroblasts and inflammatory influx).

[5] = bleomycin 5 days, then ICG-001 5 mgs/Kg/day for 10 days from the sixth day
[6] = bleomycin 5 days, then ICG-001 5 mgs/Kg/day for 10 days, untreated controls did not

β-catenin/CBP interaction, sequence (Q92793 whole entry): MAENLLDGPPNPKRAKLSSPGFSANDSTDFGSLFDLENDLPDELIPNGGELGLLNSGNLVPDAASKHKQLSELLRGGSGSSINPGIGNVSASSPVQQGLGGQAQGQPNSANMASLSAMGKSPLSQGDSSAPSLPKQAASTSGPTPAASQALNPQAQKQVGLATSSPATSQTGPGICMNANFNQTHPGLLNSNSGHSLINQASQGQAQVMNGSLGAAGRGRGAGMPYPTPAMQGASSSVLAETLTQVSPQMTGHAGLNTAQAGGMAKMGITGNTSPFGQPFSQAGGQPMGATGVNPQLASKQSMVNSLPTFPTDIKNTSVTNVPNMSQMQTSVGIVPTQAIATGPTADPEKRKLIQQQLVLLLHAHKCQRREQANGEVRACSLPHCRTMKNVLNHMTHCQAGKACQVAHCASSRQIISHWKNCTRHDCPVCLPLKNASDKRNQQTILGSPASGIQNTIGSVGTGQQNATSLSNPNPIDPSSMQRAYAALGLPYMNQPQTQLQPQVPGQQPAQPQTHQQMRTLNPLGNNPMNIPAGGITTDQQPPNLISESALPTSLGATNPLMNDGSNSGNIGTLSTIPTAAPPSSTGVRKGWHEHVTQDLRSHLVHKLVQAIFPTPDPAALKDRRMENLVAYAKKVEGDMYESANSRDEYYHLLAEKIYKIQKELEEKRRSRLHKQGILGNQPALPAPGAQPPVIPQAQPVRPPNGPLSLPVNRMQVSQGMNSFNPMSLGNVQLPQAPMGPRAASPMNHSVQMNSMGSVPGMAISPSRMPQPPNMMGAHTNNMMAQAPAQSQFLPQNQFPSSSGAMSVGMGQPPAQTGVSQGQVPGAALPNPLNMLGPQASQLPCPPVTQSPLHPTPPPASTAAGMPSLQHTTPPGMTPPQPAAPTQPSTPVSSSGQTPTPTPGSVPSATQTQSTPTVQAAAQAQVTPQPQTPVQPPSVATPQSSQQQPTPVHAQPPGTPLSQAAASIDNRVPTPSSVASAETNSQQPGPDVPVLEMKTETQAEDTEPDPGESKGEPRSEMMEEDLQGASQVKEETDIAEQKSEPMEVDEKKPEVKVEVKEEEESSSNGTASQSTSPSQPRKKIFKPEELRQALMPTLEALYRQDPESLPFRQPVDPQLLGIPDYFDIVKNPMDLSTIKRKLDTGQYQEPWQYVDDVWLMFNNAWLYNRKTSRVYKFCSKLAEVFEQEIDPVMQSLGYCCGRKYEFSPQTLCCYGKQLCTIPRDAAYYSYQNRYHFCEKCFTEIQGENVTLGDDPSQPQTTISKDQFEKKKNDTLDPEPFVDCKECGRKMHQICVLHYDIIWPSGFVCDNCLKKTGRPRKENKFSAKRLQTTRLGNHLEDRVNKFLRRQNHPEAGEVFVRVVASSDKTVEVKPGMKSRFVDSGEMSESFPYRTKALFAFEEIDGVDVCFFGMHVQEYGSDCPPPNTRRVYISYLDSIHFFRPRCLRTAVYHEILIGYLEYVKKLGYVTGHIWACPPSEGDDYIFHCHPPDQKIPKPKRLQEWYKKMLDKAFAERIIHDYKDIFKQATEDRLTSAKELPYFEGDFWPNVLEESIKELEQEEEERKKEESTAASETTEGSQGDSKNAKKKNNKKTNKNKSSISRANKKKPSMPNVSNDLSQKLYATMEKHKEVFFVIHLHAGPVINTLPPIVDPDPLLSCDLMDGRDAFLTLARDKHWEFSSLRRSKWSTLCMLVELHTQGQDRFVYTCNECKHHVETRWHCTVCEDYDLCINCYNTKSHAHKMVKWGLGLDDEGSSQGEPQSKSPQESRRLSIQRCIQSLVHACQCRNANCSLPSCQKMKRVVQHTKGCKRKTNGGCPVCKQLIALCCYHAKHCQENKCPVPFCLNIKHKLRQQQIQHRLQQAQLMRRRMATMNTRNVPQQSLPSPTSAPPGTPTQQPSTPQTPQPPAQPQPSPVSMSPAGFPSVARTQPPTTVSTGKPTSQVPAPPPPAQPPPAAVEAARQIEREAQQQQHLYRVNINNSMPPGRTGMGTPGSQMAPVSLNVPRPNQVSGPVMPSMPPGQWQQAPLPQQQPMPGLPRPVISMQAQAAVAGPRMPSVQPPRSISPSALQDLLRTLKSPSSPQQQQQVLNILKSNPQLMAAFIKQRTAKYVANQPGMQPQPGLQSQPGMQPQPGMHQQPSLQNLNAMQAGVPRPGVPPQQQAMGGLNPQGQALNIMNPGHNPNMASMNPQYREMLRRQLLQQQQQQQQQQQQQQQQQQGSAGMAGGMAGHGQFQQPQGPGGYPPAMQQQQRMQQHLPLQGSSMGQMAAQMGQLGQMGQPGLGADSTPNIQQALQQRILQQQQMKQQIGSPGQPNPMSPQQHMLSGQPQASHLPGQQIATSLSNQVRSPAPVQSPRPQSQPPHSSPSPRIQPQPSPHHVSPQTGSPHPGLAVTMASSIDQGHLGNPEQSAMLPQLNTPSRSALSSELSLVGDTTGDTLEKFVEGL

## O=C1[C@H](Cc2ccc(O)cc2)N2C(=O)CCN(C(=O)NCc3ccccc3)[C@H]2CN1Cc1cccc2ccccc12 [ICG-001]
E-Cadherin
  E-cadherin expression (Western blot): increased
[1]
  effect on β-catenin/CBP interaction: selectively blocks
S100A4 [2]
  S100A4 message (RT-PCR): reduced essentially to negative control
S100A4 [3]
  S100A4 expression at the mRNA level: this is also true at the mRNA level
S100A4 [3]; RPMI 1640+10% FBS, 2 days
  S100A4 expression (Western blot): decreased
Collagen 1A2
  collagen 1A2 message (RT-PCR): reduced essentially to negative control
[4]; [5]
  airway appearance in lung sections: essentially normal
  collagen levels (trichrome stain): normal collagen levels
[4]; [6]
  body weight: regained normal body weight
  survival: survived
[4]; murine bleomycin model of pulmonary fibrosis, 5 mg/Kg/day
  disease progression, as judged by reduced mortality, histopathology and endogenous gene expression: not only halts but reverses disease progression
